One test deals with T1, Mtb CYP121 (Mycobacterium tuberculosis, UniProt P9WPP7). The test can be described thus: thermal shift assay. The format is binding.
T1 sequence (P9WPP7 whole entry): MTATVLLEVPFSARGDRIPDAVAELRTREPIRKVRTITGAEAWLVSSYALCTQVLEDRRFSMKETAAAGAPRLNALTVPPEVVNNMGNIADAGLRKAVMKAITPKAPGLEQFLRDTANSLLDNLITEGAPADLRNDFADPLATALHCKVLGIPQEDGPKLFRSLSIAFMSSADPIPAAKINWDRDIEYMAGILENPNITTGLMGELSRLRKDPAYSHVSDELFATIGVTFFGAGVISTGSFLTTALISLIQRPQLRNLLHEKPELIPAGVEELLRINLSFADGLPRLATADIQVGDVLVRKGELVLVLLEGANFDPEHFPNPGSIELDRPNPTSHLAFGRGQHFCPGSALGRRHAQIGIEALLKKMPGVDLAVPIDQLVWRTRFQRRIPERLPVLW
Settings: not given
The source says:
thermal shift assay on Mtb CYP121
For orientation: ΔTm means the shift of the melting midpoint relative to a reference. Turning to `COC(=O)[C@H](N)Cc1ccc(O)cc1` [1b, D-tyrosine methyl ester], the ΔTm at 5000 µM is 3 °C.

The target of a further test is CYP124 (Mycobacterium tuberculosis, UniProt P9WPP3). The test can be described thus: UV/vis Soret shift. The conditions noted are these: 10 µM; […] ligand, […] DMSO; weak blue shift. The format is binding.
CYP124, sequence (P9WPP3 whole entry): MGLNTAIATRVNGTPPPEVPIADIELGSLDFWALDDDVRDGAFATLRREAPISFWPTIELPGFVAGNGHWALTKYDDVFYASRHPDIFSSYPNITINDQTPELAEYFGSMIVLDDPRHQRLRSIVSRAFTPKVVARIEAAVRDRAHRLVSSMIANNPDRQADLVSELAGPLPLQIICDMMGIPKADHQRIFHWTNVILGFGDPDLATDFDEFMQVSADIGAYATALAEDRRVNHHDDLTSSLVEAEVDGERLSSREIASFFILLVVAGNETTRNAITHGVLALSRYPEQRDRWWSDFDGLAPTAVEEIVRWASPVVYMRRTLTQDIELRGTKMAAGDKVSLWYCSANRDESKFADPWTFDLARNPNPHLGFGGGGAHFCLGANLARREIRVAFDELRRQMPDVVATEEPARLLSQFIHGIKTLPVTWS
Consider `NC(Cc1c[nH]c2ccc(Br)cc12)C(=O)SCCc1ccccc1` (racemic) [compound 31, compound 31 (5-bromo-tryptophan phenethyl-thioester)], for which the CYP124 was −2 nm.

Still in this test, the particulars now being: 100 µM; […] ligand, […] DMSO; weak blue shift.
With `N[C@H](Cc1c[nH]c2ccccc12)C(=O)NCCc1c[nH]c2ccccc12` [compound 9, acyclic cWW-9], the CYP124 was −2 nm.

In the next test the target is CYP142 (Mycobacterium tuberculosis, UniProt P9WPL5). Kind of test: UV/vis Soret shift. The format is binding. Conditions: 2000 µM; […] ligand, […] DMSO; type II. The source says: UV/vis Soret shift on CYP142
CYP142, sequence (P9WPL5 whole entry): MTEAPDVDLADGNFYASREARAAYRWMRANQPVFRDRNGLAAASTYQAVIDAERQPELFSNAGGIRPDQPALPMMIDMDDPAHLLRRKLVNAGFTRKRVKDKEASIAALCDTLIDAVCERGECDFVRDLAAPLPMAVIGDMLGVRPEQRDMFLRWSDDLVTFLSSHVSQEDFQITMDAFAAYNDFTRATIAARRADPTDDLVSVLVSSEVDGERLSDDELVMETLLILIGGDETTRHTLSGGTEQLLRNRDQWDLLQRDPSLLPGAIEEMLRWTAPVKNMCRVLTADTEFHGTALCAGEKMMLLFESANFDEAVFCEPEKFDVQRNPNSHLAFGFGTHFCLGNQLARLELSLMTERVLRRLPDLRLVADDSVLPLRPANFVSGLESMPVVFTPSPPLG
As to `COC(=O)[C@H](N)Cc1c[nH]c2ccccc12` [1a, D-tryptophan methyl ester], the CYP142 entry is “+2 nm”.

The target in the next test is T1, Mtb CYP121. The test can be described thus: UV/vis optical titration (Soret shift). The format is binding.
Settings: not given
The text has this: UV/vis optical titration (Soret shift) on Mtb CYP121
As to `N[C@H](Cc1c[nH]c2ccccc12)c1nc(-c2ccccc2)c[nH]1` [compound 14, imidazole 14], the Kd is 530 ± 100 µM.

The same test, now with this note: read-out: K d [μM]^[b].
Regarding `NC(Cc1c[nH]c2ccc(O)cc12)C(=O)SCCc1ccccc1` (racemic) [compound 26, compound 26 (5-hydroxy indole)], the Kd turned out to be 130 ± 9.3 µM.

For the compound `NC(Cc1c[nH]c2ncccc12)C(=O)SCCc1ccccc1` (racemic) [compound 27, aza-tryptophan analogue 27], the Kd is 110 ± 9.1 µM. On the same count and under the same terms, the figure for `NC(Cc1c[nH]c2ccc(Br)cc12)C(=O)SCCc1ccccc1` (racemic) [compound 31, compound 31 (5-bromo-tryptophan phenethyl-thioester)] is 16 ± 2.4 µM; for `NC(Cc1c[nH]c2ccc(Br)cc12)c1nc(-c2ccccc2)cs1` (racemic) [compound 32, compound 32 (5-bromo-tryptophan phenyl-thiazole)] it is 32 ± 2.5 µM. Consider `COC(=O)[C@H](N)Cc1c[nH]c2ccccc12` [1a, D-tryptophan methyl ester], for which the Kd was determined as 840 ± 88 µM. With `N[C@H](Cc1c[nH]c2ccccc12)C(=O)OCCc1ccccc1` [compound 2, phenethyl ester 2], the Kd was determined as 200 ± 17 µM. As to `N[C@@H](Cc1c[nH]c2ccccc12)C(=O)OCCc1ccccc1` [compound 3, L-phenethyl ester 3], the Kd stood at 200 ± 19 µM. On to `N[C@H](Cc1c[nH]c2ccccc12)C(=O)NCCc1ccc(O)cc1` [compound 7, acyclic cYW-7], for which the Kd stood at 260 ± 14 µM. Regarding `N[C@H](Cc1c[nH]c2ccccc12)C(=O)NCCc1ccccc1` [compound 8, acyclic cWF-8], the Kd stood at 270 ± 22 µM. Still for that read-out and setting: the figure for `N[C@H](Cc1c[nH]c2ccccc12)C(=O)NCCc1c[nH]c2ccccc12` [compound 9, acyclic cWW-9] is 110 ± 6 µM; for `N[C@H](Cc1c[nH]c2ccccc12)C(=S)NCCc1ccccc1` [compound 12, thioamide 12] it is 150 ± 18 µM; for `N[C@H](Cc1c[nH]c2ccccc12)c1nc(-c2ccccc2)cs1` [compound 13, thiazole 13] it is 44 ± 3.6 µM. Still for that read-out and setting: for `N[C@H](Cc1c[nH]c2ccccc12)C(=O)SCCc1c[nH]c2ccccc12` [compound 17, indole-substituted thioester 17] the value was 45 ± 4.4 µM. For the compound `N[C@H](Cc1c[nH]c2ccccc12)c1nc(Cc2c[nH]c3ccccc23)cs1` [compound 18, indole-substituted thiazole 18], the Kd stood at 52 ± 3.1 µM.

On to `N[C@H](Cc1c[nH]c2ccccc12)C(=O)OC/C=C/c1ccccc1` [compound 20, compound 20 (trans-alkene)], for which the Kd was determined as 120 ± 21 µM.

Regarding `N[C@H](Cc1c[nH]c2ccccc12)C(=O)SCC1CC(c2ccccc2)=NO1` (stereo partly shown) [compound 25, phenyl-isoxazole-substituted compound 25], the Kd is 35 ± 4.2 µM. Same read-out and setting: the figure for `NC(Cc1ccccc1Br)C(=O)SCCc1ccccc1` (stereo not shown) [compound 30, 2-bromophenylalanine derivative 30] is 30 ± 3.8 µM.

For the origin of these results see PMC5026067, “Substrate Fragmentation for the Design of M. tuberculosis CYP121 Inhibitors” (Chemmedchem, 2016).
